In patent US20100286105A1, “METHODS OF TREATING HYPERANDROGENISM AND CONDITIONS ASSOCIATED THEREWITH BY ADMINISTERING A FATTY ACID ESTER OF AN ESTROGEN OR AN ESTROGEN DERIVATIVE” (priority 2006, published 2010):

How the values were obtained:
Assay type in all cases: in vivo, human
humans [1] = test: Part 1: single oral dose safety and tolerability study of oleoyl-estrone in humans; settings: one-time single oral dose
Protocol: (§1) A two-part study was conducted to evaluate the safety, tolerability, and pharmacokinetic (PK) profiles of single and multiple doses of oleoyl-estrone in humans.
For the first part of the study, thirty-six subjects where divided into groups of six. Each group was dosed with a single dose of 1, 3, 10, 30, 100, or 150 mg of oleoyl-estrone. Each individual in the group of 6 was randomized to oleoyl-estrone or placebo in a ratio of 2:1 where for every two individuals given oleoyl-estrone one is given a placebo.
(§2) Subjects under went a physical examination to establish height, weight, BMI and baseline signs and symptoms. Electrocardiograms and vital signs were taken. Blood for evaluation of hematology, coagulation and clinical chemistry and urine for urinalysis were obtained for each subject. Samples were also taken for hormone analysis, including estrone, estradiol and testosterone.

humans [2] = test: Part 2: seven-day daily oral dose safety and tolerability study in humans
Protocol: as §1
(§3) For the second part of the study, […] subjects were divided into […]. Each group was dosed with a single daily dose of 10, 30, 100, or 150 mg oleoyl-estrone for a seven day period. Each individual in the group of 4 was randomized to oleoyl-estrone or placebo.
as §2, with “testosterone. Food-intake and motivation-to-eat using visual analogue scale questionnaires were analyzed.” for “testosterone.”
(§4) Males and post-menopausal females were recruited in both parts of the study. The trial protocol provided that patients should maintain a normal diet and level of activity, but required that patients abstain from consuming alcohol. At baseline, in the placebo group me mean patient weight was 100.5±4.9 kg and BMI 34.4±3.5 and in the oleoyl-estrone group the weight was 100.5±17.8 kg and the average BMI was 34±4.2. The results discussed below are from the second part of the study.

humans [3] = test: Part 2: hematology and clinical chemistry (white blood cells, lipids, glucose)
Protocol: as §3
as §2, with “testosterone. Food-intake and motivation-to-eat using visual analogue scale questionnaires were analyzed.” for “testosterone.”
as §4

humans [4] = test: Part 2: hormone levels (estrone, estradiol, testosterone, LH, leptin, CRP); settings: 7 days daily oral dosing
Protocol: as §3
as §2, with “testosterone. Food-intake and motivation-to-eat using visual analogue scale questionnaires were analyzed.” for “testosterone.”
as §4

[5] = Part 2: pharmacokinetics, plasma concentration of oleoyl-estrone; settings: for Cmax: 100 mg, 100 mg group (highest)
Protocol: as §3
as §2, with “testosterone. Food-intake and motivation-to-eat using visual analogue scale questionnaires were analyzed.” for “testosterone.”
as §4

humans [6] = test: Part 2: body weight and food consumption (visual analogue scale questionnaires)
Protocol: as §3
as §2, with “testosterone. Food-intake and motivation-to-eat using visual analogue scale questionnaires were analyzed.” for “testosterone.”
as §4

[7] = oleoyl-estrone treated group, 7 days daily oral dosing

accumulation in plasma ([5]; Day 7 relative to Day 1, daily oral dosing for 7 consecutive days): no clear accumulation in plasma
Cmax ([5]; both sexes, human, plasma, oral, Day 1): 2.4 ng/mL
Cmax ([5]; both sexes, human, plasma, oral, Day 7): 3.2 ng/mL
concentration at 1 day ([5]; both sexes, human, plasma, oral, Day 1, across dose groups, read-out: oleoyl-estrone plasma levels): 0.3 to 2.4 ng/mL
concentration at 7 day ([5]; both sexes, human, plasma, oral, Day 7, across dose groups, read-out: oleoyl-estrone plasma levels): 0.3 to 3 ng/mL
sex differences in plasma concentration-time profiles ([5]; males and post-menopausal females): no clear differences between the sexes
Structure (SMILES): CCCCCCCC/C=C\CCCCCCCC(=O)Oc1ccc2c(c1)CC[C@@H]1[C@@H]2CC[C@]2(C)C(=O)CC[C@@H]12 [oleoyl-estrone, [3(Z)]-3-[(1-oxo-9-octadecenyl)oxy]-estra-1,3,5(10)-trien-17-one]
safety and tolerability (humans [1]; 1 to 150 mg): safe, well tolerated at oral doses up to 150 mg
serious adverse events (humans [1]; up to 150 mg): no serious adverse events were noted
changes in physical examinations, vital signs, ECGs, coagulation or liver function tests (humans [2]; 7 days daily oral dosing): no clinically significant changes
post-menopausal bleeding (humans [2]; oleoyl-estrone study volunteers, similar episode 6 months prior to dosing): one had post-menopausal bleeding
adverse effect: back pain (n affected/n treated) (humans [2]; [7]): 4/17
adverse effect: diarrhea (n affected/n treated) (humans [2]; [7]): 3/17
adverse effect: headache (n affected/n treated) (humans [2]; [7]): 3/17
safety and tolerability (humans [2]; single daily oral dose 10-150 mg for seven days, humans): safe, well tolerated at oral doses up to 150 mg
serious adverse events (humans [2]; single daily oral dose up to 150 mg for seven days, humans): no serious adverse events were noted
mean HDL cholesterol (humans [3]; 7 days daily oral dosing): increased
mean LDL cholesterol (humans [3]; 7 days daily oral dosing): decreased
HDL:LDL cholesterol ratio (humans [3]; 7 days daily oral dosing, even lower doses): increase in the HDL:LDL cholesterol ratio even at the lower doses
mean glucose concentration (humans [3]; 7 days daily oral dosing, up to Day 15): fell in a reversible and dose dependent manner and was still low at Day 15
total mean cholesterol (humans [3]; Day 7, 100-150 mg): decrease at Day 7 with 100-150 mg
white blood cell count (humans [3]; Day 7 and Day 15): increase in white blood cell count was seen in Day 7 but returned to baseline by Day 15
total mean TAGs (humans [3]; all doses, all days): dose-dependent increase at all doses and on all days
effects on LH (humans [4]): less clear-cut
mean estradiol levels (humans [4]): elevated
mean estrone levels (humans [4]): elevated
mean testosterone levels (humans [4]): suppressed in a reversible and dose dependent manner
CRP (humans [4]; to Day 15): increased in a dose-dependent manner, returning to baseline by Day 15
leptin (humans [4]; to Day 15): increased in a dose-dependent manner, returning to baseline by Day 15
plasma concentration of oleoyl-estrone versus administered dose level ([5]; 10-150 mg daily oral, assay of limited sensitivity): did not increase with the administered dose level
dose dependence of VAS scores and loss of weight (humans [6]; 10-150 mg daily for 7 days): more or less dose-dependent, with maximal effects in the 30 mg and 100 mg groups
feelings of hunger, satiety and prospective food consumption (VAS) (humans [6]; 7 days daily oral dosing): consistently demonstrated reductions
weight loss compared to placebo (humans [6]; Day 28): greater and maintained
